From PMC6445713 (Molecular cancer research : MCR, 2018)
*1 amine or outer side, *2 acyl side, *3 side chain or, on linkers, in order; H or OH if unused. Where a SMILES comes first, the peptide text is derived from it. Bridges are numbered along the chain shown (N, C = ends). [ ]: non-standard residue; d: D form. The star is where a group is joined. Leu(3R-OH,Nα-propionyl) = CCC(=O)N[C@H](C(=O)*)[C@H](O)C(C)C; X1 = CC(C)[C@@H](O[*:3])[C@H](N[*:1])C(=O)[*:2]; NMeT = CN[C@H](C(=O)O)[C@@H](C)O; dPhLac = O=C(O)[C@H](O)Cc1ccccc1; NMeA = CN[C@@H](C)C(=O)O; NMeDha = C=C(NC)C(=O)O

Experiments:
[1] = target: T1, Gαq-Q209L (GαqΔ34-Q209L) (Mus musculus, UniProt P21279, Q209L); assay: […]GTPγS filter-binding assay with purified protein preincubated with FR; format: biochemical
T1 sequence (P21279 35-359 Q209L): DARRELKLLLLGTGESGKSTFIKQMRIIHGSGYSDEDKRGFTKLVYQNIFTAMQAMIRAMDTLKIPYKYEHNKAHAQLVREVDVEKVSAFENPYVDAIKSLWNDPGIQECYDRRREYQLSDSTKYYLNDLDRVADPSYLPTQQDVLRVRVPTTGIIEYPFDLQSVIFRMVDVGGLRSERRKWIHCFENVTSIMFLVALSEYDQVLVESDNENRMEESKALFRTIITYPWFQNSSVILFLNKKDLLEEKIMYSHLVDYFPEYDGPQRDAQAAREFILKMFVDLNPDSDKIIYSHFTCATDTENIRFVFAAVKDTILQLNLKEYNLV

[2] = target: Gαq (Rattus norvegicus, UniProt P82471); assay: as above; format: biochemical
[3] = target: T2, Gαq (Rattus norvegicus, UniProt P82471); assay: […]GTPγS radioligand filter binding
T2 sequence (P82471 1-359): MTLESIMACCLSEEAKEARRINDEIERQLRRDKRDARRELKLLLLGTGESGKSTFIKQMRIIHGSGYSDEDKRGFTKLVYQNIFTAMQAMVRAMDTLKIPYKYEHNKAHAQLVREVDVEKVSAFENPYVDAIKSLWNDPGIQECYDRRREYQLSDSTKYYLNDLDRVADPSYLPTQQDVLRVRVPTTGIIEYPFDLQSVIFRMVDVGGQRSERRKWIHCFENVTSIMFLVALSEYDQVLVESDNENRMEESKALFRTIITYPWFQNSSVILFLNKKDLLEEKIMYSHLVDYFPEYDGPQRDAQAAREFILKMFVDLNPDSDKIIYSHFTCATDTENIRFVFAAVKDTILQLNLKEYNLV

[4] = target: T1, Gαq-Q209L (GαqΔ34-Q209L); assay: […]GTPγS radioligand filter binding

SMILES	IC50 [1] [nM]	IC50 [2] [nM]	[35S]GTPγS radioligand filter binding [3]	[35S]GTPγS radioligand filter binding [4]
C=C1C(=O)N[C@@H](C)C(=O)N(C)[C@@H](C)C(=O)N[C@@H]([C@H](OC(=O)[C@@H](NC(=O)CC)[C@H](O)C(C)C)C(C)C)C(=O)N(C)[C@@H]([C@@H](C)OC)C(=O)O[C@H](C(C)C)[C@H](NC(C)=O)C(=O)O[C@H](Cc2ccccc2)C(=O)N1C [FR, FR900359] (Ac-[X1][dPhLac][NMeDha]A[NMeA][X1](Leu(3R-OH,Nα-propionyl))[NMeT](Me); ester 1-C)	~75	~75		
Nc1nc2c(ncn2[C@@H]2O[C@H](COP(=O)(O)OP(=O)(O)OP(O)(O)=S)[C@@H](O)[C@H]2O)c(=O)[nH]1 [GTPγS]			GTPγS binding of purified Gαq and Gαq-Q209L was measured using a filter-binding method	GTPγS binding of purified Gαq and Gαq-Q209L was measured using a filter-binding method
